# Test results as given in article PMC5218480 (PLoS ONE, 2017).
# Tested on: MV-4-11 cells
# Experiment: Gene expression microarray analysis (Affymetrix PrimeView) and GSEA
# Type: cell-based, human
# Parameters: RFU PODN (11730768_x_at) / Fold change /veh PODN (11730768_x_at) / RFU LINC00158 (11744669_a_at) / Fold change /veh LINC00158 (11744669_a_at) / RFU DUSP10 (11751237_a_at) / Fold change /veh DUSP10 (11751237_a_at) / RFU ID3 (11757404_x_at) / Fold change /veh ID3 (11757404_x_at) / RFU PLEKHG5 (11737974_s_at) / Fold change /veh PLEKHG5 (11737974_s_at) / RFU LRRC4B (11730491_at) / Fold change /veh LRRC4B (11730491_at) / RFU GIMAP4 (11747438_a_at) / Fold change /veh GIMAP4 (11747438_a_at) / RFU KRT8 (11758183_x_at) / Fold change /veh KRT8 (11758183_x_at) / RFU CNN1 (11734310_a_at) / Fold change /veh CNN1 (11734310_a_at) / RFU VPS37D (11726825_at) / Fold change /veh VPS37D (11726825_at) / RFU C10orf10 (11716522_x_at) / Fold change /veh C10orf10 (11716522_x_at) / RFU KIR2DL2 /// KIR2DL4 /// KIR2DL5A /// KIR2DL5B /// KIR2DS1 /// KIR2DS2 /// KIR2DS3 /// KIR2DS4 /// KIR3DL3 /// KIR3DL3 /// KIR3DS1 (11738374_at) / Fold change /veh KIR2DL2 /// KIR2DL4 /// KIR2DL5A /// KIR2DL5B /// KIR2DS1 /// KIR2DS2 /// KIR2DS3 /// KIR2DS4 /// KIR3DL3 /// KIR3DL3 /// KIR3DS1 (11738374_at) / RFU C1QL1 (11718748_at) / Fold change /veh C1QL1 (11718748_at) / RFU TMPRSS4 (11747572_a_at) / Fold change /veh TMPRSS4 (11747572_a_at) / RFU HAMP (11756126_x_at) / Fold change /veh HAMP (11756126_x_at) / RFU RNFT2 (11725882_a_at) / Fold change /veh RNFT2 (11725882_a_at) / RFU NR4A2 (11747474_a_at) / Fold change /veh NR4A2 (11747474_a_at) / RFU ABCC12 (11746883_a_at) / Fold change /veh ABCC12 (11746883_a_at) / RFU TMEM136 (11760407_x_at) / Fold change /veh TMEM136 (11760407_x_at) / RFU CLDN22 /// WWC2 (11732394_at) / Fold change /veh CLDN22 /// WWC2 (11732394_at) / RFU HLA-DPB1 (11760878_x_at) / Fold change /veh HLA-DPB1 (11760878_x_at) / RFU SPINT1 (11716480_a_at) / Fold change /veh SPINT1 (11716480_a_at) / RFU GAP43 (11754022_s_at) / Fold change /veh GAP43 (11754022_s_at) / RFU A4GNT (11735810_at) / Fold change /veh A4GNT (11735810_at) / RFU PRB3 (11715151_x_at) / Fold change /veh PRB3 (11715151_x_at) / RFU TUBB4B (11761932_at) / Fold change /veh TUBB4B (11761932_at) / RFU CAPN14 (11732068_a_at) / Fold change /veh CAPN14 (11732068_a_at) / RFU TMCC2 (11721928_a_at) / Fold change /veh TMCC2 (11721928_a_at) / RFU IRGQ (11745062_a_at) / Fold change /veh IRGQ (11745062_a_at) / RFU FAM174B (11720279_a_at) / Fold change /veh FAM174B (11720279_a_at) / RFU TMPRSS4 (11748680_a_at) / Fold change /veh TMPRSS4 (11748680_a_at) / RFU FAM212B (11763350_a_at) / Fold change /veh FAM212B (11763350_a_at) / RFU PLEKHG5 (11743358_a_at) / Fold change /veh PLEKHG5 (11743358_a_at) / RFU ZSCAN30 (11745921_a_at) / Fold change /veh ZSCAN30 (11745921_a_at) / RFU CMKLR1 (11741424_a_at) / Fold change /veh CMKLR1 (11741424_a_at) / RFU LOC101060620 /// MAPK8IP1 (11723275_at) / Fold change /veh LOC101060620 /// MAPK8IP1 (11723275_at) / RFU SPTSSB (11747773_x_at) / Fold change /veh SPTSSB (11747773_x_at) / RFU PRSS12 (11739890_at) / Fold change /veh PRSS12 (11739890_at) / RFU BIN1 (11741810_x_at) / Fold change /veh BIN1 (11741810_x_at) / RFU WNT11 (11732464_a_at) / Fold change /veh WNT11 (11732464_a_at) / RFU C10orf10 (11716521_a_at) / Fold change /veh C10orf10 (11716521_a_at) / RFU C5orf56 (11738089_at) / Fold change /veh C5orf56 (11738089_at) / RFU CYB561 (11721691_x_at) / Fold change /veh CYB561 (11721691_x_at) / RFU ANKRD19P (11752326_a_at) / Fold change /veh ANKRD19P (11752326_a_at) / RFU OR2T12 /// OR2T33 /// OR2T8 (11738714_s_at) / Fold change /veh OR2T12 /// OR2T33 /// OR2T8 (11738714_s_at) / RFU VCAN (11748164_a_at) / Fold change /veh VCAN (11748164_a_at) / RFU JSRP1 (11732532_at) / Fold change /veh JSRP1 (11732532_at) / RFU KRTAP10-11 (11738290_x_at) / Fold change /veh KRTAP10-11 (11738290_x_at) / RFU MYO3A (11730013_a_at) / Fold change /veh MYO3A (11730013_a_at) / RFU EBF3 (11725865_a_at) / Fold change /veh EBF3 (11725865_a_at) / RFU CAMK2N1 (11719241_x_at) / Fold change /veh CAMK2N1 (11719241_x_at) / RFU C5orf56 (11738088_a_at) / Fold change /veh C5orf56 (11738088_a_at) / RFU OLFML3 (11715873_a_at) / Fold change /veh OLFML3 (11715873_a_at) / RFU LOC100653217 /// NTM (11731650_a_at) / Fold change /veh LOC100653217 /// NTM (11731650_a_at) / RFU MAPK11 (11762145_a_at) / Fold change /veh MAPK11 (11762145_a_at) / RFU FIZ1 (11724087_x_at) / Fold change /veh FIZ1 (11724087_x_at) / RFU OASL (11726364_x_at) / Fold change /veh OASL (11726364_x_at) / RFU SOX15 (11748057_x_at) / Fold change /veh SOX15 (11748057_x_at) / RFU CD79A (11719716_a_at) / Fold change /veh CD79A (11719716_a_at) / RFU HIST1H1D (11736915_at) / Fold change /veh HIST1H1D (11736915_at) / RFU CASKIN2 (11723855_a_at) / Fold change /veh CASKIN2 (11723855_a_at) / RFU LOC730098 (11760151_x_at) / Fold change /veh LOC730098 (11760151_x_at) / RFU OR4N2 (11742367_at) / Fold change /veh OR4N2 (11742367_at) / RFU PRRT2 (11749266_a_at) / Fold change /veh PRRT2 (11749266_a_at) / RFU SNX32 (11753110_a_at) / Fold change /veh SNX32 (11753110_a_at) / RFU CDHR5 (11726645_a_at) / Fold change /veh CDHR5 (11726645_a_at) / RFU RCAN1 (11760418_a_at) / Fold change /veh RCAN1 (11760418_a_at) / RFU FAM167A (11723789_a_at) / Fold change /veh FAM167A (11723789_a_at) / RFU FAM26E (11764081_at) / Fold change /veh FAM26E (11764081_at) / RFU ISYNA1 (11749810_s_at) / Fold change /veh ISYNA1 (11749810_s_at) / RFU ACY1 (11761880_at) / Fold change /veh ACY1 (11761880_at) / RFU 11764098_at / Fold change /veh 11764098_at / RFU SAMD14 (11745864_x_at) / Fold change /veh SAMD14 (11745864_x_at) / RFU NPB (11741838_a_at) / Fold change /veh NPB (11741838_a_at) / RFU TMPRSS6 (11731388_a_at) / Fold change /veh TMPRSS6 (11731388_a_at) / RFU KRTAP10-2 (11738614_at) / Fold change /veh KRTAP10-2 (11738614_at) / RFU ARHGAP8 /// PRR5-ARHGAP8 (11727945_x_at) / Fold change /veh ARHGAP8 /// PRR5-ARHGAP8 (11727945_x_at) / RFU KRTAP5-7 /// NADSYN1 (11734609_at) / Fold change /veh KRTAP5-7 /// NADSYN1 (11734609_at) / RFU RASL12 (11751679_a_at) / Fold change /veh RASL12 (11751679_a_at) / RFU CDKN2B (11736163_a_at) / Fold change /veh CDKN2B (11736163_a_at) / RFU PRF1 (11729649_at) / Fold change /veh PRF1 (11729649_at) / RFU, ZNF638 /// ZNF638-IT1 / Fold change vs veh, ZNF638 /// ZNF638-IT1 / RFU, PANK3 / Fold change vs veh, PANK3 / RFU, SH3YL1 / Fold change vs veh, SH3YL1 / RFU, ZEB2 / Fold change vs veh, ZEB2 / RFU, NRIP1 / Fold change vs veh, NRIP1 / RFU, PTTG1IP / Fold change vs veh, PTTG1IP / RFU, CAPN2 / Fold change vs veh, CAPN2 / RFU, MED14 / Fold change vs veh, MED14 / RFU, SNORA58 / Fold change vs veh, SNORA58 / RFU, C1orf63 / Fold change vs veh, C1orf63 / RFU, LRRFIP1 / Fold change vs veh, LRRFIP1 / RFU, NDUFAF7 / Fold change vs veh, NDUFAF7 / RFU, SLC12A2 / Fold change vs veh, SLC12A2 / RFU, IBTK / Fold change vs veh, IBTK / RFU, ESF1 / Fold change vs veh, ESF1 / Fold change vs veh, TMEM50B / RFU, TAOK1 / Fold change vs veh, TAOK1 / RFU, ACBD3 / Fold change vs veh, ACBD3 / RFU, TMA16 / Fold change vs veh, TMA16 / RFU, RWDD3 / Fold change vs veh, RWDD3 / RFU, BCAT1 / Fold change vs veh, BCAT1 / RFU, EDEM3 / Fold change vs veh, EDEM3 / RFU, TMEM33 / Fold change vs veh, TMEM33 / RFU, WDR75 / Fold change vs veh, WDR75 / RFU, AHCTF1 / Fold change vs veh, AHCTF1 / RFU, TFRC / Fold change vs veh, TFRC / RFU, ZDHHC17 / Fold change vs veh, ZDHHC17 / RFU, NOM1 / Fold change vs veh, NOM1 / RFU, ARL8B / Fold change vs veh, ARL8B / RFU, ZBTB11 / Fold change vs veh, ZBTB11 / RFU, TAMM41 / Fold change vs veh, TAMM41 / RFU, KIAA1704 /// LOC100996395 / Fold change vs veh, KIAA1704 /// LOC100996395 / RFU, ING1 / Fold change vs veh, ING1 / RFU, TRMT61B / Fold change vs veh, TRMT61B / RFU, FUBP3 / Fold change vs veh, FUBP3 / RFU, TP53 / Fold change vs veh, TP53 / RFU, TNKS2 / Fold change vs veh, TNKS2 / RFU, ZFP14 / Fold change vs veh, ZFP14 / RFU, ACTR2 / Fold change vs veh, ACTR2 / RFU, PPP3R1 / Fold change vs veh, PPP3R1 / RFU, PIK3R1 / Fold change vs veh, PIK3R1 / RFU, HNRNPA1 / Fold change vs veh, HNRNPA1 / RFU, RNF170 / Fold change vs veh, RNF170 / RFU, ZNF28 / Fold change vs veh, ZNF28 / RFU, RNGTT / Fold change vs veh, RNGTT / RFU, OGT / Fold change vs veh, OGT / RFU, BRD1 / Fold change vs veh, BRD1 / RFU, MARS / Fold change vs veh, MARS / RFU, ZNF655 / Fold change vs veh, ZNF655 / RFU, FAHD1 / Fold change vs veh, FAHD1 / RFU, BDP1 / Fold change vs veh, BDP1 / RFU, LRRCC1 / Fold change vs veh, LRRCC1 / RFU, ARID1A / Fold change vs veh, ARID1A / RFU, ZNF146 / Fold change vs veh, ZNF146 / RFU, ZNF330 / Fold change vs veh, ZNF330 / RFU, GPN3 / Fold change vs veh, GPN3 / RFU, C9orf123 / Fold change vs veh, C9orf123 / RFU, N4BP2L2 / Fold change vs veh, N4BP2L2 / RFU, ARFIP1 / Fold change vs veh, ARFIP1 / RFU, FAM179B / Fold change vs veh, FAM179B / RFU, BCL10 / Fold change vs veh, BCL10 / RFU, UHRF1BP1L / Fold change vs veh, UHRF1BP1L / RFU, BET1 / Fold change vs veh, BET1 / RFU, CNOT2 / Fold change vs veh, CNOT2 / RFU, ZNF268 / Fold change vs veh, ZNF268 / Fold change vs veh, ZNF507 / RFU, DGCR2 / Fold change vs veh, DGCR2 / RFU, WDSUB1 / Fold change vs veh, WDSUB1 / Fold change vs veh, HSP90B1 /// MIR3652 / RFU, ADSS / Fold change vs veh, ADSS / RFU, GK / Fold change vs veh, GK / RFU, ZNF148 / Fold change vs veh, ZNF148 / RFU, TAF9 / Fold change vs veh, TAF9 / RFU, SLC1A5 / Fold change vs veh, SLC1A5 / RFU, SLMO2 / Fold change vs veh, SLMO2 / RFU, ABCC4 / Fold change vs veh, ABCC4 / RFU, LOC101060439 /// RAP1B / Fold change vs veh, LOC101060439 /// RAP1B / RFU, RFX7 / Fold change vs veh, RFX7 / RFU, GTPBP10 / Fold change vs veh, GTPBP10 / RFU, CNEP1R1 / Fold change vs veh, CNEP1R1 / RFU, BIVM-ERCC5 /// ERCC5 / Fold change vs veh, BIVM-ERCC5 /// ERCC5 / RFU, ILF3 / Fold change vs veh, ILF3 / RFU 11762660_at / Fold change /veh 11762660_at / RFU VCAN (11757783_s_at) / Fold change /veh VCAN (11757783_s_at) / RFU DDX43 (11728927_at) / Fold change /veh DDX43 (11728927_at) / RFU KRT8 (11758188_x_at) / Fold change /veh KRT8 (11758188_x_at) / RFU NKD1 (11759106_at) / Fold change /veh NKD1 (11759106_at) / RFU SRD5A1 (11742802_a_at) / Fold change /veh SRD5A1 (11742802_a_at) / RFU TPSAB1 /// TPSB2 (11721975_s_at) / Fold change /veh TPSAB1 /// TPSB2 (11721975_s_at) / RFU GSTM3 (11746129_a_at) / Fold change /veh GSTM3 (11746129_a_at) / RFU IL23R (11737362_x_at) / Fold change /veh IL23R (11737362_x_at) / RFU TMEM51 (11727254_a_at) / Fold change /veh TMEM51 (11727254_a_at) / RFU PIWIL2 (11732686_x_at) / Fold change /veh PIWIL2 (11732686_x_at) / RFU ORM1 (11744905_x_at) / Fold change /veh ORM1 (11744905_x_at) / RFU CCDC152 (11743942_at) / Fold change /veh CCDC152 (11743942_at) / RFU ECM1 (11717891_a_at) / Fold change /veh ECM1 (11717891_a_at) / RFU IL23R (11748794_a_at) / Fold change /veh IL23R (11748794_a_at) / RFU TNFAIP8L3 (11732012_x_at) / Fold change /veh TNFAIP8L3 (11732012_x_at) / RFU MBOAT4 (11741988_at) / Fold change /veh MBOAT4 (11741988_at) / RFU 11764193_at / Fold change /veh 11764193_at / RFU TMEM53 (11763286_at) / Fold change /veh TMEM53 (11763286_at) / RFU MAGEB2 (11727129_at) / Fold change /veh MAGEB2 (11727129_at) / RFU TMEM200A (11744735_a_at) / Fold change /veh TMEM200A (11744735_a_at) / RFU CCDC152 (11751479_a_at) / Fold change /veh CCDC152 (11751479_a_at) / RFU FAM211A (11726209_a_at) / Fold change /veh FAM211A (11726209_a_at) / RFU RGS16 (11746705_a_at) / Fold change /veh RGS16 (11746705_a_at) / RFU VCAN (11755009_s_at) / Fold change /veh VCAN (11755009_s_at) / RFU RHOB (11743442_s_at) / Fold change /veh RHOB (11743442_s_at) / RFU RGS16 (11720943_a_at) / Fold change /veh RGS16 (11720943_a_at) / RFU RGS16 (11720944_at) / Fold change /veh RGS16 (11720944_at) / RFU, VPS4B / Fold change vs veh, VPS4B / RFU, CREB1 / Fold change vs veh, CREB1 / RFU, DNAJC13 / Fold change vs veh, DNAJC13 / RFU, GNAQ / Fold change vs veh, GNAQ / RFU, CDK5R1 / Fold change vs veh, CDK5R1 / RFU, ZRANB3 / Fold change vs veh, ZRANB3 / RFU, CUL4A / Fold change vs veh, CUL4A / RFU, CCNY / Fold change vs veh, CCNY / RFU, UFL1 / Fold change vs veh, UFL1 / RFU, COG3 / Fold change vs veh, COG3 / RFU, DIAPH2 / Fold change vs veh, DIAPH2 / RFU, SKA2 / Fold change vs veh, SKA2 / RFU, AFF3 / Fold change vs veh, AFF3 / RFU, LMF1 / Fold change vs veh, LMF1 / RFU, IPO11 / Fold change vs veh, IPO11 / RFU, DFFB / Fold change vs veh, DFFB / RFU, FOXP1 / Fold change vs veh, FOXP1 / RFU, CARD8 / Fold change vs veh, CARD8 / RFU, STRN3 / Fold change vs veh, STRN3 / RFU, ADK / Fold change vs veh, ADK / RFU, RASSF2 / Fold change vs veh, RASSF2 / RFU, WIPF1 / Fold change vs veh, WIPF1 / RFU, LARP1B / Fold change vs veh, LARP1B / RFU, RASA1 / Fold change vs veh, RASA1 / RFU, RB1 / Fold change vs veh, RB1 / RFU, PPFIA1 / Fold change vs veh, PPFIA1 / RFU, MAT2A / Fold change vs veh, MAT2A / RFU, CCT5 / Fold change vs veh, CCT5 / RFU, WDR92 / Fold change vs veh, WDR92 / RFU, CUX1 / Fold change vs veh, CUX1 / RFU, TTC7A / Fold change vs veh, TTC7A / RFU, TMEM135 / Fold change vs veh, TMEM135 / RFU, DEPTOR / Fold change vs veh, DEPTOR / RFU, CPM / Fold change vs veh, CPM / RFU, DNAJB6 / Fold change vs veh, DNAJB6 / RFU, CACNA2D3 / Fold change vs veh, CACNA2D3 / RFU, DTX4 / Fold change vs veh, DTX4 / RFU, TFCP2 / Fold change vs veh, TFCP2 / RFU, GMCL1 /// GMCL1P1 / Fold change vs veh, GMCL1 /// GMCL1P1 / RFU, AEBP2 / Fold change vs veh, AEBP2 / RFU, SNHG1 /// SNORD22 /// SNORD25 /// SNORD26 /// SNORD27 /// SNORD28 /// SNORD29 /// SNORD31 / Fold change vs veh, SNHG1 /// SNORD22 /// SNORD25 /// SNORD26 /// SNORD27 /// SNORD28 /// SNORD29 /// SNORD31 / Fold change (Aza/veh), C12orf56 (ProbeSet 11735607_a_at) / Fold change (ACY-1035/veh), C12orf56 (ProbeSet 11735607_a_at) / Fold change (Aza/veh), FGFR1OP (ProbeSet 11751329_s_at) / Fold change (ACY-1035/veh), FGFR1OP (ProbeSet 11751329_s_at) / Fold change (Aza/veh), VPS36 (ProbeSet 11739960_a_at) / Fold change (ACY-1035/veh), VPS36 (ProbeSet 11739960_a_at) / RFU SYPL1 (11715823_x_at) / Fold change /veh SYPL1 (11715823_x_at) / RFU IGFBP7 (11715501_s_at) / Fold change /veh IGFBP7 (11715501_s_at) / RFU REEP3 (11722064_at) / Fold change /veh REEP3 (11722064_at) / RFU IGLL1 (11728026_x_at) / Fold change /veh IGLL1 (11728026_x_at): dose or concentration left out as unconfirmed
# Conditions: MV-4-11 cells, 48 hours
smiles,measurement,value
Nc1ccc(-c2cccs2)cc1NC(=O)c1ccc2c(c1)cc(C1CC1)n2CCN1CCOCC1 [ACY-1035],RFU ABCC12 (11746883_a_at),8.23 RFU
